Test results as given in US8889874B2, “Imidazolone-chalcone derivatives as potential anticancer agent and process for the preparation thereof” (Council of Scientific and Industrial Research, priority 2010, dated 2014).
Read-outs that look alike come from different tables or passages of the source.

Tests used:
Format in all cases: cell-based, human
[1] = test system: Melanoma cancer cell lines; experiment: NCI anticancer screen, SRB assay, panel summary; conditions: for GI50: Homo sapiens
Protocol: (§1) Some of biological activity studies were carried out at the National Cancer Institute (NCI), Maryland, USA.
(§2) The compounds were evaluated for anticancer activity against fifty three human cancer cells derived from nine cancer types (leukemia cell line, non-small-cell lung cell line, colon cell line, CNS cell line, melanoma cell line, ovarian cell line, prostate cell line, and breast cancer cell line) as shown in Table 1. For each compound, dose response curves for each cell line were measured at a minimum of five concentrations at 10 fold dilutions. A protocol of 48 h continuous drug exposure was used and a sulforhodamine B (SRB) protein assay was used to estimate cell viability or growth.

[2] = test system: Non-small cell lung cancer cell lines; experiment: NCI anticancer screen, SRB assay, panel summary; conditions: Homo sapiens
Protocol: as §1, §2

CNS cancer cell lines = experiment: NCI anticancer screen, SRB assay, panel summary; conditions: for GI50: Homo sapiens
Protocol: as §1, §2

Colon cancer cell lines = experiment: NCI anticancer screen, SRB assay, panel summary; conditions: for GI50: Homo sapiens
Protocol: as §1, §2

[3] = test system: Leukemia cancer cell lines; experiment: NCI anticancer screen, SRB assay, panel summary; conditions: Homo sapiens
Protocol: as §1, §2

Breast cancer cell lines = experiment: NCI anticancer screen, SRB assay, panel summary; conditions: Homo sapiens
Protocol: as §1, §2

Renal cancer cell lines = experiment: NCI anticancer screen, SRB assay, panel summary; conditions: Homo sapiens
Protocol: as §1, §2

[4] = test system: Ovarian cancer cell lines; experiment: NCI anticancer screen, SRB assay, panel summary; conditions: Homo sapiens
Protocol: as §1, §2

SK-MEL-28 (melanoma) = experiment: NCI anticancer screen, SRB assay, 48 h; conditions: Homo sapiens
In short: (§3)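 Compounds were tested across fifty three human cancer cell lines from nine tumour types. Each line got a dose-response curve of at least five concentrations at 10-fold dilutions, with continuous drug exposure and sulforhodamine B protein staining to estimate viability or growth.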

SN12C (renal) = experiment: NCI anticancer screen, SRB assay, 48 h; conditions: Homo sapiens, SN12C
In short: as §3

SF-539 (CNS) = experiment: NCI anticancer screen, SRB assay, 48 h; conditions: Homo sapiens
In short: as §3

SNB-19 (CNS) = experiment: NCI anticancer screen, SRB assay, 48 h; conditions: Homo sapiens
In short: as §3

M14 (melanoma) = experiment: NCI anticancer screen, SRB assay, 48 h; conditions: Homo sapiens
In short: as §3

[5] = test system: HOP-62 (non-small cell lung); experiment: NCI anticancer screen, SRB assay, 48 h; conditions: Homo sapiens
In short: as §3

[6] = test system: NCI-H460 (non-small cell lung); experiment: NCI anticancer screen, SRB assay, 48 h; conditions: Homo sapiens
In short: as §3

[7] = test system: HOP-92 (non-small cell lung); experiment: NCI anticancer screen, SRB assay, 48 h; conditions: Homo sapiens
In short: as §3

U251 (CNS) = experiment: NCI anticancer screen, SRB assay, 48 h; conditions: Homo sapiens
In short: as §3

RXF 393 (renal) = experiment: NCI anticancer screen, SRB assay, 48 h; conditions: Homo sapiens
In short: as §3

SK-MEL-2 (melanoma) = experiment: NCI anticancer screen, SRB assay, 48 h; conditions: Homo sapiens
In short: as §3

OVCAR-5 (ovarian) = experiment: NCI anticancer screen, SRB assay, 48 h; conditions: Homo sapiens
In short: as §3

COLO 205 (colon) = experiment: NCI anticancer screen, SRB assay, 48 h; conditions: Homo sapiens, COLO 205
In short: as §3

ACHN (renal) = experiment: NCI anticancer screen, SRB assay, 48 h; conditions: Homo sapiens
In short: as §3

UO-31 (renal) = experiment: NCI anticancer screen, SRB assay, 48 h; conditions: Homo sapiens
In short: as §3

NCI/ADR-RES (ovarian) = experiment: NCI anticancer screen, SRB assay, 48 h; conditions: Homo sapiens, NCI/ADR-RES
In short: as §3

HCC-2998 (colon) = experiment: NCI anticancer screen, SRB assay, 48 h; conditions: Homo sapiens
In short: as §3

[8] = 48 h exposure, SRB, read-out: GI50
[9] = read-out: pGI50 (-log of molar concentration causing 50% inhibition of net cell growth) (converted)

Q: What does the source list for `O=C(/C=C/c1cccc(O)c1)c1cccc(-n2cc(-c3ccc(Cl)cc3)[nH]c2=O)c1` [4f, 4-(4-chlorophenyl)-1-3-[(E)-3-(3-hydroxyphenyl)-2-propenoyl]phenyl-2,3-dihydro-1H-2-imidazolone]?
A: GI50 ([1]; Melanoma panel, log of concentration in mol/L causing 50% inhibition of net cell growth, read-out: mean graph midpoint (MG_MID) of Log10 GI50 (converted)): 2190 nM; GI50 ([1]; nine melanoma cancer cell lines, exposure at least 48 hrs, read-out: GI50, range over the panel): 1530 to 4070 nM; mean graph midpoint (MG_MID) of Log10 LC50 ([1]; Melanoma panel, log of concentration leading to 50% net cell death): 4.55; GI50 ([2]; Non-small cell lung panel, log of concentration in mol/L causing 50% inhibition of net cell growth, read-out: mean graph midpoint (MG_MID) of Log10 GI50 (converted)): 2340 nM; LC50 ([2]; Non-small cell lung panel, log of concentration leading to 50% net cell death, read-out: mean graph midpoint (MG_MID) of Log10 LC50 (converted)): 57500 nM; GI50 ([2]; nine non-small cell lung cancer cell lines, exposure at least 48 hrs, read-out: GI50, range over the panel): 1600 to 3550 nM; mean graph midpoint (MG_MID) of Log10 LC50 (CNS cancer cell lines; CNS panel, log of concentration leading to 50% net cell death): 4.87; GI50 (CNS cancer cell lines; CNS panel, log of concentration in mol/L causing 50% inhibition of net cell growth, read-out: mean graph midpoint (MG_MID) of Log10 GI50 (converted)): 1450 nM; GI50 (CNS cancer cell lines; six CNS cancer cell lines, exposure at least 48 hrs, read-out: GI50, range over the panel): 580 to 1920 nM; mean graph midpoint (MG_MID) of Log10 LC50 (Colon cancer cell lines; Colon panel, log of concentration leading to 50% net cell death): 4.68; GI50 (Colon cancer cell lines; Colon panel, log of concentration in mol/L causing 50% inhibition of net cell growth, read-out: mean graph midpoint (MG_MID) of Log10 GI50 (converted)): 2340 nM; GI50 (Colon cancer cell lines; seven colon cancer cell lines, exposure at least 48 hrs, read-out: GI50, range over the panel): 1230 to 13700 nM; GI50 ([3]; Leukemia panel, log of concentration in mol/L causing 50% inhibition of net cell growth, read-out: mean graph midpoint (MG_MID) of Log10 GI50 (converted)): 794 nM; LC50 ([3]; Leukemia panel, log of concentration leading to 50% net cell death, read-out: mean graph midpoint (MG_MID) of Log10 LC50 (converted)): 87100 nM; GI50 ([3]; two leukemia cancer cell lines (RPMI-8226 and K-562), exposure at least 48 hrs, read-out: GI50, range over the panel): 400 to 1550 nM; GI50 (Breast cancer cell lines; Breast panel, log of concentration in mol/L causing 50% inhibition of net cell growth, read-out: mean graph midpoint (MG_MID) of Log10 GI50 (converted)): 2190 nM; LC50 (Breast cancer cell lines; Breast panel, log of concentration leading to 50% net cell death, read-out: mean graph midpoint (MG_MID) of Log10 LC50 (converted)): 63100 nM; GI50 (Breast cancer cell lines; five breast cancer cell lines, exposure at least 48 hrs, read-out: GI50, range over the panel): 1290 to 4000 nM; GI50 (Renal cancer cell lines; Renal panel, log of concentration in mol/L causing 50% inhibition of net cell growth, read-out: mean graph midpoint (MG_MID) of Log10 GI50 (converted)): 1780 nM; LC50 (Renal cancer cell lines; Renal panel, log of concentration leading to 50% net cell death, read-out: mean graph midpoint (MG_MID) of Log10 LC50 (converted)): 27500 nM; GI50 (Renal cancer cell lines; eight renal cancer cell lines, exposure at least 48 hrs, read-out: GI50, range over the panel): 550 to 3710 nM; GI50 ([4]; Ovarian panel, log of concentration in mol/L causing 50% inhibition of net cell growth, read-out: mean graph midpoint (MG_MID) of Log10 GI50 (converted)): 2040 nM; LC50 ([4]; Ovarian panel, log of concentration leading to 50% net cell death, read-out: mean graph midpoint (MG_MID) of Log10 LC50 (converted)): 46800 nM; GI50 ([4]; six ovarian cancer cell lines, exposure at least 48 hrs, read-out: GI50, range over the panel): 990 to 4210 nM; GI50 (SK-MEL-28 (melanoma); [8]): 3640 nM; GI50 (SK-MEL-28 (melanoma); [9]): 3630 nM; GI50 (SN12C (renal); SN 12C, read-out: pGI50 (-log of molar concentration causing 50% inhibition of net cell growth) (converted)): 1950 nM; GI50 (SN12C (renal); [8]): 1950 nM; GI50 (SF-539 (CNS); [8]): 1680 nM; GI50 (SF-539 (CNS); [9]): 1700 nM; GI50 (SNB-19 (CNS); [8]): 1920 nM; GI50 (SNB-19 (CNS); [9]): 1910 nM; GI50 (M14 (melanoma); [8]): 2010 nM; GI50 (M14 (melanoma); [9]): 2000 nM; GI50 [5, 8]: 2360 nM; GI50 [5, 9]: 2340 nM; GI50 [6, 8]: 2410 nM; GI50 [6, 9]: 2400 nM; GI50 [7, 8]: 1600 nM; GI50 [7, 9]: 1580 nM; GI50 (U251 (CNS); U-251, 48 h exposure, SRB, read-out: GI50): 580 nM; GI50 (U251 (CNS); U-251, read-out: pGI50 (-log of molar concentration causing 50% inhibition of net cell growth) (converted)): 575 nM; GI50 (RXF 393 (renal); RXF 393, 48 h exposure, SRB, read-out: GI50): 1510 nM; GI50 (RXF 393 (renal); RXF-393, read-out: pGI50 (-log of molar concentration causing 50% inhibition of net cell growth) (converted)): 1510 nM; GI50 (SK-MEL-2 (melanoma); [8]): 2070 nM; GI50 (SK-MEL-2 (melanoma); [9]): 2090 nM; GI50 (OVCAR-5 (ovarian); [8]): 2190 nM; GI50 (OVCAR-5 (ovarian); [9]): 2190 nM; GI50 (COLO 205 (colon); COLO205, read-out: pGI50 (-log of molar concentration causing 50% inhibition of net cell growth) (converted)): 2290 nM; GI50 (COLO 205 (colon); [8]): 2290 nM; GI50 (ACHN (renal); [8]): 1840 nM; GI50 (ACHN (renal); [9]): 1820 nM; GI50 (UO-31 (renal); [8]): 550 nM; GI50 (UO-31 (renal); [9]): 550 nM; GI50 (NCI/ADR-RES (ovarian); NCl/ADR-RES, 48 h exposure, SRB, read-out: GI50): 2200 nM; GI50 (NCI/ADR-RES (ovarian); [9]): 2190 nM; GI50 (HCC-2998 (colon); [8]): 13700 nM; GI50 (HCC-2998 (colon); [9]): 13800 nM
